For one assay, the target named is IDH1 R132H (Homo sapiens, UniProt O75874, R132H). The experiment in a line: Assay for IDH1 R132H inhibitors (NADPH/aKG, resazurin detection). Type of assay: biochemical. The conditions noted are these: enzyme assay of Example 12; read-out: IDH1R132H IC50. In outline:
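Compound added to substrate mix (8 uM NADPH, 2 mM aKG), then enzyme mix (0.2 μg/ml IDH1 R132H); 50 min RT in 20 mM Tris pH 7.5, 150 mM NaCl, 10 mM MgCl2, 0.03% BSA. Resazurin detection mix (30 μM) 5 min RT; resorufin fluorescence Ex544/Em590.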

Another assay deals with HT1080 cells. The assay can be described thus: Cellular assay for IDH1m inhibitors: inhibition of 2-HG production (LC-MS, 48 hours) in HT1080 cells. The conditions noted are these: Homo sapiens. Type of assay: cell-based. Summed up: (§1)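 HT1080 or U87MG cells were seeded at 5000/well in DMEM with 10% FBS, incubated overnight, then treated with compounds (0.2% DMSO final) for 48 h. Medium 2-HG was quantified by LC-MS, and IC50 was taken as the concentration reducing 2-HG by 50% versus DMSO control.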

A further assay concerns U87MG cells. The experiment in a line: Cellular assay for IDH1m inhibitors: inhibition of 2-HG production (LC-MS, 48 hours) in U87MG cells. Type of assay: cell-based. The conditions noted are these: Homo sapiens, U-87 MG. Summed up: as §1
Setting [1] is: HT-1080, inhibition of 2-HG production, HT1080 cells, read-out: HT1080 IC50.
[2] abbreviates: inhibition of 2-HG production, U87R132H cells, read-out: U87R132H IC50.

The structures appear in SMILES notation. Where two headings read alike, the source gives them in different places.

Sequence of IDH1 R132H (O75874 whole entry R132H): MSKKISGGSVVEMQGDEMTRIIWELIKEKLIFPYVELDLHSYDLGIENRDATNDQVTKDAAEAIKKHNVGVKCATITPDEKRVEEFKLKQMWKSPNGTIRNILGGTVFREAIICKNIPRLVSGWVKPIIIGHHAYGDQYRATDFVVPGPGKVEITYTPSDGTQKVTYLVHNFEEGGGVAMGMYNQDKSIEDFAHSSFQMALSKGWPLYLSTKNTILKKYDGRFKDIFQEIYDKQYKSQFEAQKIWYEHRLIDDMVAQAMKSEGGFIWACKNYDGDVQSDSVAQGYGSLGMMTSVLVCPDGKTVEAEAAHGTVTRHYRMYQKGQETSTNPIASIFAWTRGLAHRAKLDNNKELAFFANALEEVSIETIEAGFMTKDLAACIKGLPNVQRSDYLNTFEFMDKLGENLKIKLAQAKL

One may read the IC50 as the point on the concentration scale where inhibition reaches its midpoint. Take `C=Cc1cc(-c2cc(C#N)c(N3CCN(C(=O)CCOP(=O)(O)O)[C@H](C4CC4)C3)nc2C2CC2)ccn1` [Compound 810, Sodium (R)-3-(4-(5-cyano-2-cyclopropyl-2′-vinyl-[3,4′-bipyridin]-6-yl)-2-cyclopropylpiperazin-1-yl)-3-oxopropyl phosphate]: the half-inhibitory concentration (IC50) at IDH1 R132H was 0.5 to 1 µM; in the assay with HT1080 cells (HT-1080, read-out: HT1080 IC50 (μM)), below 0.5 µM; with U87MG cells (read-out: U87R132H IC50 (μM)), below 0.5 µM.
In the case of `C=Cc1cc(-c2cc(C#N)c(N3CCN(C(=O)CC4CCO4)[C@H](C)C3)nc2C2CC2)ccn1` (stereo partly drawn) [Compound 649, 2-cyclopropyl-6-((3R)-3-methyl-4-(2-(oxetan-2-yl)acetyl)piperazin-1-yl)-2′-vinyl-[3,4′-bipyridine]-5-carbonitrile], the IC50 on IDH1 R132H, in the assay with HT1080 cells (setting [1]) and in the assay with U87MG cells (setting [2]) was below 0.5 µM in each case.
As for `C[C@@H]1CN(c2nc(C3CC3)c(-c3ccc(F)cc3)cc2C#N)CCN1C(=O)C1CC1` [Compound 550, (R)-2-(4-(cyclopropanecarbonyl)-3-methylpiperazin-1-yl)-6-cyclopropyl-5-(4-fluorophenyl)nicotinonitrile], the IC50 was 0.5 to 1 µM at IDH1 R132H, below 0.5 µM in the assay with HT1080 cells (setting [1]) and below 0.5 µM in the assay with U87MG cells (setting [2]).
For `COCCC(=O)N1CCN(c2nc(C3CC3)c(Nc3cc(C#N)ccn3)cc2C#N)C[C@H]1C1CC1` [Compound 792, (R)-5-(4-cyanopyridin-2-ylamino)-6-cyclopropyl-2-(3-cyclopropyl-4-(3-methoxypropanoyl)piperazin-1-yl)nicotinonitrile], the IC50 is below 0.5 µM at IDH1 R132H, 1 to 10 µM in the assay with HT1080 cells (setting [1]) and 1 to 10 µM in the assay on U87MG cells (setting [2]).
Turning to `C=Cc1cc(-c2cc(C#N)c(N3CCN(C(=O)CCO)[C@H](C)C3)nc2C2CC2)ccn1` [Compound 500], the IC50 on IDH1 R132H, with HT1080 cells (setting [1]) and in the assay on U87MG cells (setting [2]) was below 0.5 µM throughout.
For the compound `C=CS(=O)(=O)N(c1cccc(-c2c(C3CC3)nc(N3CCN(C(=O)C4CC4)[C@H](C4CC4)C3)c(C#N)c2C)c1)S(=O)(=O)C=C` [Compound 463, (R)—N-(3-(5-cyano-6-(4-(cyclopropanecarbonyl)-3-cyclopropylpiperazin-1-yl)-2-cyclopropyl-4-methylpyridin-3-yl)phenyl)-N-(vinylsulfonyl)ethenesulfonamide], the IC50 is below 0.5 µM on IDH1 R132H, 1 to 10 µM with HT1080 cells (setting [1]) and 1 to 10 µM with U87MG cells (setting [2]).
Consider `C=Cc1cc(-c2cc(C#N)c(N3CCN(C(=O)CCO)[C@H](C)C3)nc2C2CC2)c2cccnc2n1` [Compound 625, (R)-6-cyclopropyl-2-(4-(3-hydroxypropanoyl)-3-methylpiperazin-1-yl)-5-(2-vinyl-1,8-naphthyridin-4-yl)nicotinonitrile], for which the IC50 on IDH1 R132H, in the assay with HT1080 cells (setting [1]) and with U87MG cells (setting [2]) was below 0.5 µM throughout.
For `COCCC(=O)N1CCN(c2nc(C3CC3)c(-c3cccc(NC(=O)CCl)c3)cc2C#N)C[C@H]1C` [Compound 403, (R)-2-chloro-N-(3-(5-cyano-2-cyclopropyl-6-(4-(3-methoxypropanoyl)-3-methylpiperazin-1-yl)pyridin-3-yl)phenyl)acetamide], the figures for the IC50 at IDH1 R132H, in the assay on HT1080 cells (setting [1]) and in the assay with U87MG cells (setting [2]) were below 0.5 µM, 0.5 to 1 µM and 0.5 to 1 µM, respectively.
As to `C=Cc1cc(Nc2cc(C#N)c(N3CCN(C(=O)COC)[C@H](C(C)C)C3)nc2C2CC2)ccn1` [Compound 743, (R)-6-cyclopropyl-2-(3-isopropyl-4-(2-methoxyacetyl)piperazin-1-yl)-5-((2-vinylpyridin-4-yl)amino)nicotinonitrile], the IC50 on IDH1 R132H, with HT1080 cells (setting [1]) and in the assay with U87MG cells (setting [2]) was below 0.5 µM throughout.
Consider `COCCC(=O)N1CCN(c2nc(C3CC3)c(-c3cccc4[nH]ccc34)cc2C#N)C[C@H]1C` [Compound 287, (R)-6-cyclopropyl-5-(1H-indol-4-yl)-2-(4-(3-methoxypropanoyl)-3-methylpiperazin-1-yl)nicotinonitrile], for which the figures for the IC50 at IDH1 R132H, in the assay on HT1080 cells (setting [1]) and with U87MG cells (setting [2]) were below 0.5 µM, 1 to 10 µM and 1 to 10 µM, respectively.
With `C=Cc1ccnc(Nc2cc(C#N)c(N3CCN(C(=O)CCOC)[C@H](C)C3)nc2C2CC2)n1` [Compound 736, (R)-6-cyclopropyl-2-(4-(3-methoxypropanoyl)-3-methylpiperazin-1-yl)-5-((4-vinylpyrimidin-2-yl)amino)nicotinonitrile], the IC50 at IDH1 R132H, with HT1080 cells (setting [1]) and in the assay with U87MG cells (setting [2]) was below 0.5 µM throughout.
Consider `COCCC(=O)N1CCN(c2nc(C3CC3)c(-c3ccc(NC(C)=O)cc3)c(C)c2C#N)C[C@H]1C` [Compound 326, (R)—N-(4-{5-cyano-2-cyclopropyl-6-[4-(3-methoxy-propionyl)-3-methyl-piperazin-1-yl]-4-methyl-pyridin-3-yl}-phenyl)-acetamide], for which the IC50 at IDH1 R132H was below 0.5 µM; in the assay with HT1080 cells (setting [1]) it was 0.5 to 1 µM; with U87MG cells (setting [2]), below 0.5 µM.
Consider `COCCC(=O)N1CCN(c2nc(C3CC3)c(OCc3ccncc3)cc2C#N)C[C@H]1C` [Compound 309, (R)-6-cyclopropyl-2-(4-(3-methoxypropanoyl)-3-methylpiperazin-1-yl)-5-(pyridin-4-ylmethoxy)nicotinonitrile], for which the values for the IC50 on IDH1 R132H, with HT1080 cells (setting [1]) and in the assay on U87MG cells (setting [2]) were below 0.5 µM, 0.5 to 1 µM and 0.5 to 1 µM, respectively.
In the case of `C=Cc1cc(-c2cc(C#N)c(N3CCN(C(=O)C[C@H]4CCO4)[C@H](C4CC4)C3)nc2C2CC2)c2cnn(C)c2n1` [Compound 778, 6-cyclopropyl-2-((R)-3-cyclopropyl-4-(2-((R)-oxetan-2-yl)acetyl)piperazin-1-yl)-5-(1-methyl-6-vinyl-1H-pyrazolo[3,4-b]pyridin-4-yl)nicotinonitrile], the IC50 on IDH1 R132H, in the assay with HT1080 cells (setting [1]) and with U87MG cells (setting [2]) was below 0.5 µM each time.
In the case of `N#Cc1cc(-c2ccc3ncoc3c2)c(C2CC2)nc1N1CCN(C(=O)C2CC2)[C@H](C2CC2)C1` [Compound 466, (R)-5-(benzo[d]oxazol-6-yl)-2-(4-(cyclopropanecarbonyl)-3-cyclopropylpiperazin-1-yl)-6-cyclopropylnicotinonitrile], the results for the IC50 on IDH1 R132H, in the assay on HT1080 cells (setting [1]) and with U87MG cells (setting [2]) were below 0.5 µM, 1 to 10 µM and 0.5 to 1 µM, respectively.
`C=CC(=O)Nc1ccc(C(C)Oc2cc(C#N)c(N3CCN(C(=O)CCOC)[C@H](C)C3)nc2C2CC2)cc1` (stereo partly drawn) [Compound 389, N-(4-(1-(5-cyano-2-cyclopropyl-6-((R)-4-(3-methoxypropanoyl)-3-methylpiperazin-1-yl)pyridin-3-yloxy)ethyl)phenyl)acrylamide]: the IC50 on IDH1 R132H, with HT1080 cells (setting [1]) and in the assay on U87MG cells (setting [2]) was below 0.5 µM in each case.
With `COCCC(=O)N1CCN(c2nc(C3CC3)c(-c3ccncc3)c(C)c2C#N)C[C@H]1C` [Compound 268, (R)-2-cyclopropyl-6-(4-(3-methoxypropanoyl)-3-methylpiperazin-1-yl)-4-methyl-3,4′-bipyridine-5-carbonitrile], the results for the IC50 at IDH1 R132H, in the assay with HT1080 cells (setting [1]) and in the assay with U87MG cells (setting [2]) were 0.5 to 1 µM, 1 to 10 µM and 1 to 10 µM, respectively.
As to `COCCC(=O)N1CCN(c2nc(C3CC3)c(-c3c(C)noc3C)c(C)c2C#N)C[C@H]1C` [Compound 351, (R)-6-cyclopropyl-5-(3,5-dimethyl-isoxazol-4-yl)-2-[4-(3-methoxy-propionyl)-3-methyl-piperazin-1-yl]-4-methyl-nicotinonitrile], the IC50 on IDH1 R132H was below 0.5 µM; with HT1080 cells (setting [1]), 1 to 10 µM; with U87MG cells (setting [2]), 0.5 to 1 µM.
For `COCCC(=O)N1CCN(c2nc(C3CC3)c(-c3cccc(-c4cc[nH]n4)c3)cc2C#N)C[C@H]1C` [Compound 363, (R)-6-cyclopropyl-2-[4-(3-methoxy-propionyl)-3-methyl-piperazin-1-yl]-5-[3-(1H-pyrazol-3-yl)-phenyl]-nicotinonitrile], in that order: below 0.5 µM, 1 to 10 µM and 0.5 to 1 µM.
For `COCCC(=O)N1CCN(c2nc(C3CC3)c(-c3cccc(NC(=O)C4(C#N)CC4)c3)cc2C#N)C[C@H]1C` [Compound 425, (R)-1-cyano-N-(3-(5-cyano-2-cyclopropyl-6-(4-(3-methoxypropanoyl)-3-methylpiperazin-1-yl)pyridin-3-yl)phenyl)cyclopropanecarboxamide], in that order: 0.5 to 1 µM, 1 to 10 µM and 1 to 10 µM.
Take `COCCC(=O)N1CCN(c2nc(C3CC3)c(-c3cccc4cnccc34)cc2C#N)CC1C(F)(F)F` (stereo not drawn) [Compound 398, 6-cyclopropyl-5-(isoquinolin-5-yl)-2-(4-(3-methoxypropanoyl)-3-(trifluoromethyl)piperazin-1-yl)nicotinonitrile]: the values for the IC50 on IDH1 R132H, with HT1080 cells (setting [1]) and with U87MG cells (setting [2]) were below 0.5 µM, 1 to 10 µM and 0.5 to 1 µM, respectively.
The corresponding values for `COCCC(=O)N1CCN(c2nc(C3CC3)c(-c3ccc4cc(OC)ccc4c3)c(C)c2C#N)C[C@H]1C` [Compound 278, (R)-6-cyclopropyl-5-(6-methoxynaphthalen-2-yl)-2-(4-(3-methoxypropanoyl)-3-methylpiperazin-1-yl)-4-methylnicotinonitrile] are 0.5 to 1 µM, 1 to 10 µM and 1 to 10 µM.

Values taken from patent publication US9856279B2 (AGIOS PHARMACEUTICALS, INC, priority 2011, dated 2018).
